Experimental data published in ChEMBL document CHEMBL6114995, “Discovery of novel imidazo[1,2-b]pyridazine derivatives as potent covalent inhibitors of CDK12/13” (Eur J Med Chem, 2025).
Activity calls are given as the source filed them. The calls are words filed in the database; no cut-off is given here.

How the values were obtained:
[1] = test system: MDA-MB-468; experiment: cells; conditions: Homo sapiens, MDA-MB-468, 96 h
Description: Antiproliferative activity against human MDA-MB-468 cells assessed as inhibition of cell growth incubated for 96 hrs cellcounting-lite analysis

[2] = test system: MDA-MB-231; experiment: cells; conditions: Homo sapiens, MDA-MB-231, 96 h
Description: Antiproliferative activity against human MDA-MB-231 cells assessed as inhibition of cell growth incubated for 96 hrs cellcounting-lite analysis

[3] = biological target: T1, Cyclin-dependent kinase 12 (Homo sapiens, UniProt Q9NYV4); experiment: Inhibition of CDK12 in human MDA-MB-231 cells assessed as reduction in RNA Pol II CTD level at Ser2 residue at 10 uM incubated for 4 hrs by Western blot analysis; type: cell-based
Target sequence in this assay (Q9NYV4 whole entry, looked up): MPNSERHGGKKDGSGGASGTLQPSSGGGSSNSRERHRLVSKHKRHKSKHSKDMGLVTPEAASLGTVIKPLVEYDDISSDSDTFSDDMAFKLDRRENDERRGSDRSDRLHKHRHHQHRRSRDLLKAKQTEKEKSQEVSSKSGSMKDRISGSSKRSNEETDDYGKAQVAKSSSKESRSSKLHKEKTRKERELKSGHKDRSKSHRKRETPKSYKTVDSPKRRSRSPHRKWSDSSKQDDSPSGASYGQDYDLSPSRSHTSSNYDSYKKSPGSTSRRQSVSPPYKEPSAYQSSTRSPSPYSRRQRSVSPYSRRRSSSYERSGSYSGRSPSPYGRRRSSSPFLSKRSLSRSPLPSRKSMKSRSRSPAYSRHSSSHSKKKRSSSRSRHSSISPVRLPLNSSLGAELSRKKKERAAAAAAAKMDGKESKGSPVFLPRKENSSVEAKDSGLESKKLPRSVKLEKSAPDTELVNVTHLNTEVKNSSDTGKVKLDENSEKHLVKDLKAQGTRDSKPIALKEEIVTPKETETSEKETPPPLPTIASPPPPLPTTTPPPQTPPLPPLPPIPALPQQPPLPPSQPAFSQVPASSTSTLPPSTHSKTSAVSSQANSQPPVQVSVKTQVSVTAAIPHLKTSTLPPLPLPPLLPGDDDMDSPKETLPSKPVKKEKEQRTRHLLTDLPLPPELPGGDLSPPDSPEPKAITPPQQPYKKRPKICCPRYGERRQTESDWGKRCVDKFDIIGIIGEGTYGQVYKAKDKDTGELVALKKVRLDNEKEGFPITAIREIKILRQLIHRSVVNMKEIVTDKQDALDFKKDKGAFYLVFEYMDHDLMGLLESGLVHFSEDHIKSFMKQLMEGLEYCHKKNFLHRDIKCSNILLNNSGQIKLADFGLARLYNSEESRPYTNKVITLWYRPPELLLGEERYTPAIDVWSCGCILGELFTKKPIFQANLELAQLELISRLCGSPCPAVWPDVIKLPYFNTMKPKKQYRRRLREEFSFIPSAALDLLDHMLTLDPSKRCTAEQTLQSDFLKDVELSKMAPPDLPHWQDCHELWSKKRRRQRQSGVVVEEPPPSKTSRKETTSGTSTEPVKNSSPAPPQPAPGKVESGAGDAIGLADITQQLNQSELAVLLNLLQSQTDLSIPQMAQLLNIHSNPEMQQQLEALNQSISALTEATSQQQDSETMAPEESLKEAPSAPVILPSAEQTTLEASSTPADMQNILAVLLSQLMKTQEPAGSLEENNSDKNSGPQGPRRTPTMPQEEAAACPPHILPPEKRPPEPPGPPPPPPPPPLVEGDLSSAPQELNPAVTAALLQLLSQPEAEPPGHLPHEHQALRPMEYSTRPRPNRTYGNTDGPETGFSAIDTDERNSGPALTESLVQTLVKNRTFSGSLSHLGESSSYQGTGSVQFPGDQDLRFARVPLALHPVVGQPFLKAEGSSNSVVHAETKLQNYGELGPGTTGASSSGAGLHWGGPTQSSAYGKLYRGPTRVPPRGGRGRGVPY

[4] = biological target: T1, Cyclin-dependent kinase 12; experiment: Irreversible inhibition of CDK12 in human MDA-MB-231 cells at 10 uM pretreated with compound for 4 hrs followed by compound washout measured after 6 hrs; type: cell-based
Target sequence in this assay (Q9NYV4 whole entry, looked up): as above

[5] = test system: MDA-MB-231; experiment: Effect on ATM level in human MDA-MB-231 cells at 50 nM incubated for 24 hrs by Western blot analysis; type: functional, cell-based
[6] = biological target: T1, Cyclin-dependent kinase 12; experiment: Inhibition of CDK12 in human MDA-MB-231 cells incubated for 4 hrs by immunoblotting analysis; type: cell-based
Target sequence in this assay (Q9NYV4 whole entry, looked up): as above

[7] = test system: MDA-MB-231; experiment: Effect on cleaved PARP level in human MDA-MB-231 cells at 50 nM incubated for 24 hrs by Western blot analysis; type: functional, cell-based
[8] = biological target: T1, Cyclin-dependent kinase 12; experiment: Inhibition of CDK12 in human MDA-MB-231 cells pretreated with compound for 4 hrs followed by compound washout measured after 3 days; type: cell-based
Target sequence in this assay (Q9NYV4 whole entry): as the sequence (Q9NYV4 whole entry, looked up) above

[9] = biological target: T1, Cyclin-dependent kinase 12; experiment: Inhibition of CDK12 (unknown origin) using GSRTPMY-NH2 as substrate in presence of ATP by ADP-glo assay
Target sequence in this assay (Q9NYV4 whole entry): as the sequence (Q9NYV4 whole entry, looked up) above

[10] = test system: MDA-MB-231; experiment: Effect on BRCA1 mRNA level in human MDA-MB-231 cells at 50 nM incubated for 6 hrs by qRT-PCR analysis; type: functional, cell-based
[11] = biological target: T1, Cyclin-dependent kinase 12; experiment: Inhibition of full length FLAG-tagged CDK12 (unknown origin) at Cys1039 residue expressed in HEK293T cells at 50 uM incubated for 2 hrs by mass spectrometry analysis; type: cell-based
Target sequence in this assay (Q9NYV4 whole entry, looked up): as above

[12] = biological target: T1, Cyclin-dependent kinase 12; experiment: Irreversible inhibition of CDK12 in human MDA-MB-231 cells at 100 nM pretreated with compound for 4 hrs followed by compound washout measured after 6 hrs; type: cell-based
Target sequence in this assay (Q9NYV4 whole entry, looked up): as above

[13] = biological target: T1, Cyclin-dependent kinase 12; experiment: Inhibition of CDK12 in human MDA-MB-231 cells incubated for 4 hrs; type: cell-based
Target sequence in this assay (Q9NYV4 whole entry, looked up): as above

[14] = test system: MDA-MB-231; experiment: Effect on ATR mRNA level in human MDA-MB-231 cells at 50 nM incubated for 6 hrs by qRT-PCR analysis; type: functional, cell-based
[15] = biological target: T1, Cyclin-dependent kinase 12; conditions: dose 20.0 nM
Description: Inhibition of CDK12 (unknown origin) at 20 nM relative to control

[16] = biological target: T1, Cyclin-dependent kinase 12; conditions: dose 200.0 nM
Description: Inhibition of CDK12 (unknown origin) at 200 nM relative to control

[17] = test system: MDA-MB-231; experiment: Effect on RAD51 level in human MDA-MB-231 cells at 50 nM incubated for 24 hrs by Western blot analysis; type: functional, cell-based
[18] = biological target: T1, Cyclin-dependent kinase 12; experiment: Binding affinity to CDK12 (714 to 1069 residues) in HEK293T cells assessed as increase in thermal stability at 5 uM measured for 6 hrs by cellular thermal shift assay; type: cell-based
[19] = test system: MDA-MB-231; experiment: Effect on ATM mRNA level in human MDA-MB-231 cells at 50 nM incubated for 6 hrs by qRT-PCR analysis; type: functional, cell-based
[20] = biological target: T1, Cyclin-dependent kinase 12; conditions: MDA-MB-231, dose 200.0 nM, time 4.0 hrs
[21] = biological target: T1, Cyclin-dependent kinase 12; experiment: Inhibition of CDK12 in human MDA-MB-231 cells assessed as reduction in RNA Pol II CTD level at Ser2 residue at 2000 nM incubated for 4 hrs by Western blot analysis; type: cell-based
[22] = test system: MDA-MB-231; experiment: Effect on SMARCC1 mRNA level in human MDA-MB-231 cells at 50 nM incubated for 6 hrs by qRT-PCR analysis; type: functional, cell-based
[23] = test system: MDA-MB-231; experiment: Effect on FANCD2 mRNA level in human MDA-MB-231 cells at 50 nM incubated for 6 hrs by qRT-PCR analysis; type: functional, cell-based
[24] = test system: MDA-MB-231; experiment: Effect on alpha-tubulin level in human MDA-MB-231 cells at 50 nM incubated for 24 hrs by Western blot analysis; type: functional, cell-based
[25] = test system: MDA-MB-231; experiment: Effect on FANCI mRNA level in human MDA-MB-231 cells at 50 nM incubated for 6 hrs by qRT-PCR analysis; type: functional, cell-based
[26] = biological target: Cyclin-dependent kinase 13 (Homo sapiens, UniProt Q14004); experiment: Inhibition of CDK13 (unknown origin) using GSRTPMY-NH2 as substrate in presence of ATP by ADP-glo assay
Cyclin-dependent kinase 13, sequence (Q14004 whole entry): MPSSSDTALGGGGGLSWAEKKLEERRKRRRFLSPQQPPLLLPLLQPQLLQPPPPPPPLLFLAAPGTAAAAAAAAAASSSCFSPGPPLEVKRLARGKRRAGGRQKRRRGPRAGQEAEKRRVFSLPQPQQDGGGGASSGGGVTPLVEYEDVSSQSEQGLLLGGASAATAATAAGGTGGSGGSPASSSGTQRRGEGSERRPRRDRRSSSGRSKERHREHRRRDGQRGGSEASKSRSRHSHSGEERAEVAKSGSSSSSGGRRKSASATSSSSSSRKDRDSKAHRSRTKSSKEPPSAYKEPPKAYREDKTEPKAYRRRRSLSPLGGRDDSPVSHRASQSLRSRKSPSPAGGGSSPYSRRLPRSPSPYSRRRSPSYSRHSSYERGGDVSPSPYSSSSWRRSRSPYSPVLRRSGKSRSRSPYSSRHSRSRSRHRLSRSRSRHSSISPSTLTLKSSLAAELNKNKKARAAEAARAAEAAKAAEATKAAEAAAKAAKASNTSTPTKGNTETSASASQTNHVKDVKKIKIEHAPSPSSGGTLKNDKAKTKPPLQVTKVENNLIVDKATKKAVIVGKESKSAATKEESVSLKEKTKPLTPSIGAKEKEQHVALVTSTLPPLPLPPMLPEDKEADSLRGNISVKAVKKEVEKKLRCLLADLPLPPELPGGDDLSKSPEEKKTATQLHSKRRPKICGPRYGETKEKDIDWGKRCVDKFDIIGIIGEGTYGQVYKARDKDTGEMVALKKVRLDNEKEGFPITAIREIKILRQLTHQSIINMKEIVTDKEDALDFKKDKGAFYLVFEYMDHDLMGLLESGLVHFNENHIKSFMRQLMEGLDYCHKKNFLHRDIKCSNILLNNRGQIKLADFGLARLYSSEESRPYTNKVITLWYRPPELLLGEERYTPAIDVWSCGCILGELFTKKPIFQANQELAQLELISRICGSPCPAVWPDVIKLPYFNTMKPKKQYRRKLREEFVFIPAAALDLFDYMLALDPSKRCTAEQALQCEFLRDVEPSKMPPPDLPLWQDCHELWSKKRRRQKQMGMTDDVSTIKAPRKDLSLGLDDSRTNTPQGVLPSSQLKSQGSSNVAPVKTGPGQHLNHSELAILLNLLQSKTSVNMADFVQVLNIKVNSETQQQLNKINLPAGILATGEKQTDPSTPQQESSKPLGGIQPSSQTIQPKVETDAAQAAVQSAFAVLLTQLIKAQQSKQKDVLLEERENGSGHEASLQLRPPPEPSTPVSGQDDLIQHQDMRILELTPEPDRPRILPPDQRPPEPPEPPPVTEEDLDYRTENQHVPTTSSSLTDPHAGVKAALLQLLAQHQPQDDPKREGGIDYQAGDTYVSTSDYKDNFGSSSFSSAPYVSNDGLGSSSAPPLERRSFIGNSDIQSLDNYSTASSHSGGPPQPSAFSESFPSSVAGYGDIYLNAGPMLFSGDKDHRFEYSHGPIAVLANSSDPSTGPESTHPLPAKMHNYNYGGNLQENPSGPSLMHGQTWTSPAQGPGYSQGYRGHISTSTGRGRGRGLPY

[27] = biological target: T1, Cyclin-dependent kinase 12; experiment: Inhibition of CDK12 in human MDA-MB-231 cells at 100 nM measured upto 6 hrs by Western blot analysis; type: cell-based
[28] = biological target: T1, Cyclin-dependent kinase 12; experiment: Inhibition of CDK12 in human MDA-MB-231 cells incubated for 10 hrs; type: cell-based
Target sequence in this assay (Q9NYV4 whole entry): as the sequence (Q9NYV4 whole entry, looked up) above

[29] = test system: MDA-MB-231; experiment: Effect on RAD51 mRNA level in human MDA-MB-231 cells at 50 nM incubated for 6 hrs by qRT-PCR analysis; type: functional, cell-based
[30] = biological target: T1, Cyclin-dependent kinase 12; conditions: dose 2000.0 nM
Description: Inhibition of CDK12 (unknown origin) at 2000 nM relative to control

[31] = biological target: Protein cereblon/Cyclin-K (Homo sapiens, UniProt O75909+Q96SW2); experiment: PROTAC activity at CRBN/Cyclin K in human MDA-MB-231 cells assessed as reduction in cyclin K level incubated for 4 hrs by Western blot analysis; type: cell-based
Protein cereblon/Cyclin-K, sequence (O75909 whole entry): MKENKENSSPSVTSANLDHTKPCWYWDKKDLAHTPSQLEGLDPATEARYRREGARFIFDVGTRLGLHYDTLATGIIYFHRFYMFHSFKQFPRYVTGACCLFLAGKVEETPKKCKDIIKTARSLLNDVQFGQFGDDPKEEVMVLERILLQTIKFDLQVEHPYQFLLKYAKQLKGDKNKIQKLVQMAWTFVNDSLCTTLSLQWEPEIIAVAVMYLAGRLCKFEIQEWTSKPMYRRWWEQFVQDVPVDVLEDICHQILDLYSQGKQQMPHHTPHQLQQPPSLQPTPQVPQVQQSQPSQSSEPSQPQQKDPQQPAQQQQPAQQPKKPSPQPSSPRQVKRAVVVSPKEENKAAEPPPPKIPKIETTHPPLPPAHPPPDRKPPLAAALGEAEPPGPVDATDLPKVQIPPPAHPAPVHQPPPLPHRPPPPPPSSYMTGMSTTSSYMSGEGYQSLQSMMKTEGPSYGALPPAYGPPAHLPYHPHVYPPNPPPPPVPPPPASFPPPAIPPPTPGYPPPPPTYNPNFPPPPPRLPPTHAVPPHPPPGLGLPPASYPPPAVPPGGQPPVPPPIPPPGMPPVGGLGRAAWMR
Protein cereblon/Cyclin-K, sequence (Q96SW2 whole entry): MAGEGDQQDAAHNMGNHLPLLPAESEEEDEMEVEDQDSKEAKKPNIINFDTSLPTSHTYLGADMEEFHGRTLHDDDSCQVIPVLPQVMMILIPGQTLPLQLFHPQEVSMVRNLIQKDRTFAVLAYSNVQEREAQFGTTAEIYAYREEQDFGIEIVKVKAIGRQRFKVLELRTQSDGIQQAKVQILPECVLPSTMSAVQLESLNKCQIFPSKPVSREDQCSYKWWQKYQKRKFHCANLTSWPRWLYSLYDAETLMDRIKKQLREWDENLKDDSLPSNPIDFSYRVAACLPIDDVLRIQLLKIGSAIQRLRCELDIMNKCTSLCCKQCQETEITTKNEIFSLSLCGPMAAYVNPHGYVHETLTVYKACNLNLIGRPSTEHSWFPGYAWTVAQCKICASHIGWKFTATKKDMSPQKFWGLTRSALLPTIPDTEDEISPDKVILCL

C=CC(=O)Nc1ccc(-c2ccc3nc(CC(=O)Nc4cc(C)ns4)cn3n2)cc1F
EC50 [1]: 4520 nM

C=CC(=O)Nc1ccc(-c2ccc3nc(CC(=O)Nc4nc(C)c(C)s4)cn3n2)cc1F
EC50 [2]: 3140 nM
EC50 [1]: 1160 nM

C=CC(=O)Nc1c(F)cc(-c2ccc3nc(CC(=O)Nc4cc(C5CC5)[nH]n4)cn3n2)cc1F
EC50 [2]: 131 nM
EC50 [1]: 196 nM

C=CC(=O)Nc1ccc(-c2ccc3nc(CC(=O)Nc4cc(C5CC5)[nH]n4)cn3n2)cc1C
EC50 [2]: 30.3 nM
EC50 [1]: 13.5 nM

C=CC(=O)Nc1ccc(-c2ccc3nc(CC(=O)Nc4cc(C5CC5)[nH]n4)cn3n2)cc1Cl
EC50 [2]: 84.9 nM
EC50 [1]: 47.9 nM

CCC(=O)Nc1ccc(-c2ccc3nc(CC(=O)Nc4cc(C5CCC5)[nH]n4)cn3n2)cc1F
inhibition [3]: Active
inhibition [4]: Active

C=CC(=O)Nc1ccc(-c2ccc3nc(CC(=O)Nc4cc(C5CCC5)[nH]n4)cn3n2)cc1F
Activity [5]: Active
inhibition [6]: Active
Activity [7]: Active
EC50 [8]: 40 nM
IC50 [9]: 15.5 nM
Activity [10]: Active
inhibition [11]: Active
inhibition [12]: Active
inhibition [13]: Active
Activity [14]: Active
inhibition [15]: 73.8%
EC50 [2]: 5 nM
inhibition [16]: 93%
Activity [17]: Active
Activity [18]: Active
Activity [19]: Active
EC50 [1]: 6 nM
inhibition [20]: 100%
inhibition [21]: Active
Activity [22]: Active
Activity [23]: Active
Activity [24]: Active
Activity [25]: Active
IC50 [26]: 12.2 nM
inhibition [27]: Active
EC50 [28]: 5.38 nM
Activity [29]: Active
inhibition [30]: 92.5%

C=CC(=O)Nc1c(C)cc(-c2ccc3nc(CC(=O)Nc4cc(C5CC5)[nH]n4)cn3n2)cc1C
EC50 [2]: 75.9 nM
EC50 [1]: 36.2 nM

C=CC(=O)Nc1ccc(-c2ccc3nc(CC(=O)Nc4cc(C(C)(C)C)on4)cn3n2)cc1F
EC50 [2]: 2860 nM

C=CC(=O)Nc1ccc(-c2ccc3nc(CC(=O)Nc4cc(C5CC5)[nH]n4)cn3n2)cc1
EC50 [2]: 67.3 nM
EC50 [1]: 36.4 nM

C=CC(=O)Nc1ccc(-c2ccc3nc(CC(=O)Nc4cc(C5CC5)[nH]n4)cn3n2)cc1F
Activity [5]: Active
Activity [7]: Active
Activity [10]: Active
Activity [14]: Active
EC50 [2]: 14.3 nM
Activity [17]: Active
Activity [19]: Active
EC50 [1]: 10.1 nM
Activity [22]: Active
Activity [23]: Active
Activity [24]: Active
Activity [25]: Active
Activity [29]: Active

C=CC(=O)Nc1ccccc1-c1ccc2nc(CC(=O)Nc3cc(C4CC4)[nH]n3)cn2n1
EC50 [2]: 352 nM
EC50 [1]: 504 nM

C=CC(=O)Nc1ccc(-c2ccc3nc(CC(=O)Nc4cc(C)no4)cn3n2)cc1F
EC50 [2]: 2920 nM

Cn1cc(-n2cnc3c(NCc4nc5cc(Cl)c(Cl)cc5[nH]4)nc(N4CCOCC4)nc32)cn1
EC50 [2]: 20.7 nM
EC50 [1]: 20.3 nM

C=CC(=O)Nc1ccc(-c2ccc3nc(CC(=O)Nc4ncc(C(C)C)s4)cn3n2)cc1F
EC50 [2]: 424 nM
EC50 [1]: 608 nM

C=CC(=O)Nc1ccc(-c2ccc3nc(CC(=O)Nc4ncc(C(C)(C)C)s4)cn3n2)cc1F
EC50 [2]: 219 nM
EC50 [1]: 354 nM

CN(C)C/C=C/C(=O)Nc1ccc(C(=O)N2CCC[C@@H](Nc3ncc(Cl)c(-c4c[nH]c5ccccc45)n3)C2)cc1
IC50 [9]: 14.1 nM
inhibition [15]: 59.7%
EC50 [2]: 26.3 nM
inhibition [16]: 92.7%
EC50 [1]: 6.9 nM
inhibition [30]: 93.1%

C=CC(=O)Nc1ccc(-c2ccc3nc(CC(=O)Nc4nc(C)cs4)cn3n2)cc1F
EC50 [2]: 3040 nM
EC50 [1]: 1300 nM

CCN(CC)CC(=O)N1CCN(c2nc(NCc3nc4cc(Cl)c(Cl)cc4[nH]3)c3ncn(CC)c3n2)CC1
DC50 [31]: 0.38 nM

C=CC(=O)Nc1cccc(-c2ccc3nc(CC(=O)Nc4cc(C5CC5)[nH]n4)cn3n2)c1
EC50 [2]: 126 nM
EC50 [1]: 28.3 nM

C=CC(=O)Nc1ccc(-c2ccc3nc(CC(=O)Nc4cc(C5CC5)[nH]n4)cn3n2)cc1OC
EC50 [2]: 46.4 nM
EC50 [1]: 40.9 nM

C=CC(=O)Nc1ccc(-c2ccc3nc(CC(=O)Nc4ncc(CC)s4)cn3n2)cc1F
IC50 [9]: 34.2 nM
inhibition [15]: 29.9%
EC50 [2]: 120 nM
inhibition [16]: 80.7%
EC50 [1]: 108 nM
inhibition [30]: 92.1%

C=CC(=O)Nc1ccc(-c2ccc3nc(CC(=O)Nc4nc(C5CC5)cs4)cn3n2)cc1F
EC50 [1]: 7260 nM
